The record followed here is patent US7045533B2, “Naphthalene derivatives” (Novartis AG, priority 2000, dated 2006).

One series has as its system Wistar rats. As to the kind of experiment: Test II: Neuropathic Pain Model (partial ligation of the sciatic nerve, mechanical hyperalgesia). It counts as in vivo. As to conditions: p.o.; dose necessary to produce 50% reversal of hyperalgesia; rat. The source says: Test II: Neuropathic Pain Model
Hyperalgesia is examined in the model of neuropathic pain Induced by partial ligation of the sciatic nerve as described by Seltzer et al. (1990). Briefly, Wistar rats (120–140 g) are anaesthetised, the left sciatic nerve exposed at mid-thigh level through a small incision and ⅓ to ½ of the nerve thickness tightly ligated within a 7.0 silk suture. The wound is closed with a single muscle suture and skin clips and dusted with Aureomycin antibiotic powder. The animals are allowed to recover and used 12–15 days following surgery.
Mechanical hyperalgesia is assessed by measuring paw withdrawal thresholds to an increasing pressure stimulus placed onto the dorsal surface of the paw using an analgesymeter (Ugo-Basile, Milan) with a cut-off of 250 g. Withdrawal thresholds are measured on both the ipsilateral (ligated) and contralateral (unligated) paw prior to (predose) and then up to 6 h following drug or vehicle administration. Data are expressed as withdrawal threshold (g) and percentage reversal of hyperalgesia calculated according to the following formula: […]
Potency is expressed as D50 value, i.e. the dose of compound necessary to produce 50% reversal of hyperalgesia.

A word on the melting point: it is the temperature, or range, at which the solid turns liquid.

Compound `CCCCCOc1ccc(S(=O)(=O)N2CCCc3ccccc32)c2ccccc12` displayed a melting point of 78 to 80 °C.

The compound `CCCCCOc1ccc(C(=O)Oc2cccc3ccccc23)c2ccccc12` yielded a melting point of 95 to 100 °C.

The compound `CCCCCOc1ccc([S+]([O-])c2cccc3ccccc23)c2ccccc12` (centres unmarked) gave a melting point of 88 to 91 °C.

`CCCCCOc1ccc(S(=O)(=O)c2cccc3ccccc23)c2ccccc12`: the melting point was 143 to 144 °C.

Turning to `CCCCCOc1ccc(C(=O)c2cccc3ccccc23)c2ccccc12` [Example 1, naphthalen-1-yl-(4-pentyloxy-naphthalen-1-yl)-methanone], the “D50 value in the neuropathic pain model” value in the series with Wistar rats is listed as 0.18 mg/kg.
